Experimental data from paper PMC11435058, “Synthesis of New Thiazole-Privileged Chalcones as Tubulin Polymerization Inhibitors with Potential Anticancer Activities” (Pharmaceuticals, 2024).
Read-outs that look alike come from different tables or passages of the source.

How the values were obtained:
MDA-MB-468 = assay: NCI-60 anticancer screen (SRB; single dose and five doses); assay type: cell-based, human
How it was run: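 Readout was sulforhodamine B staining, read spectrophotometrically as percent growth against untreated controls. This followed a 48 h exposure to one 10μM dose across roughly 60 human tumor lines of the NCI screen.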

[1] = system: 60 human tumor cell lines panel; assay: NCI-60 anticancer screen, whole panel (means and ranges over the cell lines); assay type: cell-based; settings: for activity at 10 µM: Homo sapiens, 48 h, dose of 10 μM
SNB-19 = assay: cells; settings: Homo sapiens
HL-60(TB) = assay: NCI-60 anticancer screen (SRB; single dose and five doses); settings: Homo sapiens
MOLT-4 = assay: as above; settings: Homo sapiens
NCI-H522 = assay: as above; settings: Homo sapiens
SW-620 = assay: as above; settings: Homo sapiens
SF-268 = assay: as above; settings: Homo sapiens
SF-539 = assay: as above; settings: Homo sapiens
U251 = assay: as above; settings: Homo sapiens
MALME-3M = assay: as above; settings: Homo sapiens
M14 = assay: as above; settings: Homo sapiens
SK-MEL-2 = assay: as above; settings: Homo sapiens
SK-MEL-5 = assay: as above; settings: Homo sapiens
UACC-257 = assay: as above; settings: Homo sapiens
UACC-62 = assay: as above; settings: Homo sapiens
IGROV1 = assay: as above; settings: Homo sapiens
OVCAR-8 = assay: as above; settings: Homo sapiens
SK-OV-3 = assay: as above; settings: Homo sapiens
CAKI-1 = assay: as above; settings: Homo sapiens
RXF 393 = assay: as above; settings: Homo sapiens
UO-31 = assay: as above; settings: Homo sapiens
MCF7 = assay: as above; settings: Homo sapiens
MDA-MB-231/ATCC = assay: as above; settings: Homo sapiens
HS 578T = assay: as above; settings: Homo sapiens
[2] = five doses, mean graph midpoint over all cell lines
[3] = 48 h, read-out: Growth Percentage

Cc1[nH]c(=S)sc1C(=O)/C=C/c1ccc(Br)cc1 [2g, (E)-3-(4-Bromophenyl)-1-(4-Methyl-2-Thioxo-2,3-Dihydrothiazol-5-yl)Prop-2-En-1-One]
activity at 10 µM (MDA-MB-468; Homo sapiens, 48 h, MDA-MB-468, dose of 10 μM, read-out: Growth Percentage): -4.75% | GI50 (MDA-MB-468; Homo sapiens, MDA-MB-468, Breast Cancer, five dose): 1.79 µM | CC50 (MDA-MB-468; Homo sapiens, MDA-MB-468, Breast Cancer, five dose, read-out: LC50 (the source's name)): 27.2 µM | TGI (MDA-MB-468; MDA-MB-468, Breast Cancer, five dose): 6.77 µM | activity at 10 µM ([1]; mean over the tested cell lines, read-out: Mean growth percentage): 34.2% | activity at 10 µM ([1]; range over the cell lines, read-out: growth percentages against most of the tested cells (lowest to highest)): -34.1 to 109% | Log10GI50 _MID [1, 2]: -5.31 Molar | Log10LC50 _MID [1, 2]: -4.3 Molar | Log10TGI _MID [1, 2]: -4.75 Molar | GI50 (SNB-19; SNB-19): 3.47 µM | activity at 10 µM (SNB-19; SNB-19, 48 h, read-out: Growth Percentage): 32.7% | CC50 (SNB-19; SNB-19, read-out: LC50): 37.7 µM | IC (TGI) (SNB-19; SNB-19, read-out: TGI): 13.4 µM | GI50 (HL-60(TB); HL-60): 1.94 µM | activity at 10 µM (HL-60(TB); HL-60, 48 h, read-out: Growth Percentage): 13.2% | CC50 (HL-60(TB); HL-60, read-out: LC50): > 100 µM | IC (TGI) (HL-60(TB); HL-60, read-out: TGI): 9.92 µM | GI50 (MOLT-4; MOLT-4): 3.57 µM | activity at 10 µM (MOLT-4; MOLT-4, 48 h, read-out: Growth Percentage): 30.2% | CC50 (MOLT-4; MOLT-4, read-out: LC50): > 100 µM | IC (TGI) (MOLT-4; MOLT-4, read-out: TGI): 36.6 µM | GI50 (NCI-H522; NCI-H522): 3.37 µM | activity at 10 µM (NCI-H522; NCI-H522, 48 h, read-out: Growth Percentage): 21.1% | CC50 (NCI-H522; NCI-H522, read-out: LC50): 41.2 µM | IC (TGI) (NCI-H522; NCI-H522, read-out: TGI): 14.3 µM | GI50 (SW-620; SW-620): 2.82 µM | activity at 10 µM (SW-620; SW-620, 48 h, read-out: Growth Percentage): 5.7% | CC50 (SW-620; SW-620, read-out: LC50): 41.6 µM | IC (TGI) (SW-620; SW-620, read-out: TGI): 11.7 µM | GI50 (SF-268; SF-268): 13.5 µM | activity at 10 µM (SF-268; SF-268, 48 h, read-out: Growth Percentage): 46.1% | CC50 (SF-268; SF-268, read-out: LC50): 64.2 µM | IC (TGI) (SF-268; SF-268, read-out: TGI): 29.5 µM | GI50 (SF-539; SF-539): 2 µM | activity at 10 µM (SF-539; SF-539, 48 h, read-out: Growth Percentage): -25.3% | IC (TGI) (SF-539; SF-539, read-out: TGI): 4.67 µM | GI50 (U251; U-251): 2.87 µM | activity at 10 µM (U251; U-251, 48 h, read-out: Growth Percentage): 15.5% | CC50 (U251; U-251, read-out: LC50): 39.7 µM | IC (TGI) (U251; U-251, read-out: TGI): 11.7 µM | GI50 (MALME-3M): 12.5 µM | activity at 10 µM (MALME-3M; [3]): 72.9% | CC50 (MALME-3M; read-out: LC50): 67.2 µM | IC (TGI) (MALME-3M; read-out: TGI): 29 µM | GI50 (M14; M14): 9.02 µM | activity at 10 µM (M14; M14, 48 h, read-out: Growth Percentage): 74.5% | IC (TGI) (M14; M14, read-out: TGI): 22.9 µM | GI50 (SK-MEL-2; SK-MEL-2): 5.87 µM | activity at 10 µM (SK-MEL-2; SK-MEL-2, 48 h, read-out: Growth Percentage): 62.3% | CC50 (SK-MEL-2; SK-MEL-2, read-out: LC50): 47.9 µM | IC (TGI) (SK-MEL-2; SK-MEL-2, read-out: TGI): 19.5 µM | GI50 (SK-MEL-5; SK-MEL-5): 5.82 µM | activity at 10 µM (SK-MEL-5; SK-MEL-5, 48 h, read-out: Growth Percentage): 48.8% | CC50 (SK-MEL-5; SK-MEL-5, read-out: LC50): 43 µM | IC (TGI) (SK-MEL-5; SK-MEL-5, read-out: TGI): 18.4 µM | GI50 (UACC-257; UACC-257): 11.3 µM | activity at 10 µM (UACC-257; UACC-257, 48 h, read-out: Growth Percentage): 69.1% | CC50 (UACC-257; UACC-257, read-out: LC50): 51.9 µM | IC (TGI) (UACC-257; UACC-257, read-out: TGI): 24.2 µM | GI50 (UACC-62; UACC-62): 5.17 µM | activity at 10 µM (UACC-62; UACC-62, 48 h, read-out: Growth Percentage): 46.8% | IC (TGI) (UACC-62; UACC-62, read-out: TGI): 18.6 µM | GI50 (IGROV1; IGROV-1): 3.29 µM | activity at 10 µM (IGROV1; IGROV-1, 48 h, read-out: Growth Percentage): 37.1% | CC50 (IGROV1; IGROV-1, read-out: LC50): 53.4 µM | IC (TGI) (IGROV1; IGROV-1, read-out: TGI): 11.9 µM | GI50 (OVCAR-8; OVCAR-8): 2.86 µM | activity at 10 µM (OVCAR-8; OVCAR-8, 48 h, read-out: Growth Percentage): -34.1% | CC50 (OVCAR-8; OVCAR-8, read-out: LC50): 37.1 µM | IC (TGI) (OVCAR-8; OVCAR-8, read-out: TGI): 8.77 µM | GI50 (SK-OV-3; SK-OV-3): 13.8 µM | activity at 10 µM (SK-OV-3; SK-OV-3, 48 h, read-out: Growth Percentage): 96.7% | CC50 (SK-OV-3; SK-OV-3, read-out: LC50): 74.9 µM | IC (TGI) (SK-OV-3; SK-OV-3, read-out: TGI): 32.2 µM | GI50 (CAKI-1; CAKI-1): 10 µM | activity at 10 µM (CAKI-1; CAKI-1, 48 h, read-out: Growth Percentage): 32.8% | CC50 (CAKI-1; CAKI-1, read-out: LC50): 47.2 µM | IC (TGI) (CAKI-1; CAKI-1, read-out: TGI): 21.8 µM | GI50 (RXF 393; RXF 393): 2.58 µM | activity at 10 µM (RXF 393; RXF 393, 48 h, read-out: Growth Percentage): 16% | CC50 (RXF 393; RXF 393, read-out: LC50): 33 µM | IC (TGI) (RXF 393; RXF 393, read-out: TGI): 9.43 µM | GI50 (UO-31; UO-31): 2.46 µM | activity at 10 µM (UO-31; UO-31, 48 h, read-out: Growth Percentage): 22.4% | IC (TGI) (UO-31; UO-31, read-out: TGI): 13.5 µM | GI50 (MCF7; MCF7): 2.57 µM | activity at 10 µM (MCF7; MCF7, 48 h, read-out: Growth Percentage): 10.5% | CC50 (MCF7; MCF7, read-out: LC50): 38.7 µM | IC (TGI) (MCF7; MCF7, read-out: TGI): 10.6 µM | GI50 (MDA-MB-231/ATCC; MDA-MB-231): 10.9 µM | activity at 10 µM (MDA-MB-231/ATCC; MDA-MB-231, 48 h, read-out: Growth Percentage): 9.49% | CC50 (MDA-MB-231/ATCC; MDA-MB-231, read-out: LC50): 50.9 µM | IC (TGI) (MDA-MB-231/ATCC; MDA-MB-231, read-out: TGI): 23.5 µM | GI50 (HS 578T): 10.4 µM | activity at 10 µM (HS 578T; [3]): 74.6% | CC50 (HS 578T; read-out: LC50): > 100 µM | IC (TGI) (HS 578T; read-out: TGI): 33 µM
